According to the supplement of paper PMC11208160:

Assay: recombinant barcode read abundance after kanamycin selection (control-corrected) (log10(CPM+1)); higher = more efficient recombination; sequences stand for … in AGTGCAGAGAAAATCGGCCAGTTTTCTCTGCCTGCAGTCCGCATGCCGT…AGATTTATGCAGCGGACTGCCTTTCTCCCAAAGTGATAAACCGGACAGTATCATGGACCGGTTTTCCCGGTAATCCGTATTTGCAAGGTTGGTTTCACT; site = the 11-nt target
Description: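 Pooled E. coli target-specificity screen for the IS621 bridge recombinase. Each library plasmid pairs an 11-nt target (CT core) with a bridge RNA whose target-binding loop (9-nt LTG + 4-nt RTG) is reprogrammed; the rest of the 177-nt WT IS621 bridge RNA scaffold is fixed. The plasmid is co-electroporated with a WT donor plasmid; recombinase is induced with 0.1 mM IPTG and recombinants are selected on kanamycin. Recombinant barcodes are sequenced, converted to CPM, averaged over two biological replicates and corrected by the unselected control CPM. Molecule = full bridge RNA written as DNA: LTG = specificity nt 1-9, RTG = reverse complement of specificity nt 8-11, in the WT scaffold.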
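Wherever recombinant UMI read abundance after kanamycin selection (control-corrected) is given: IS621 bridge recombinase in Escherichia coli cells against a fixed T5 target plasmid.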
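Wherever recombinant barcode read abundance after kanamycin selection (control-corrected) is given: IS621 recombinase and bridge RNA in Escherichia coli cells.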

Sequence	recombinant barcode read abundance (log10)
AAAATACCTTGGGTTCTAACCTGTTGCGG (site AAAATACCTCC)	1.68
AAAATACCTTGGGTTCTAACCTGTTGCGG (site CAAAGACCTCC)	0.12
AAAATATCTTGGGTTCTAACCTGTTGCCT (site AAAATATCTAG)	0.438
AAAATATCTTGGGTTCTAACCTGTTGCCT (site TCGTACCCTTT)	0.0268
AAAATCTCTTGGGTTCTAACCTGTTGCCT (site AAAATCTCTAG)	0.708
AAAATCTCTTGGGTTCTAACCTGTTGCCT (site AAACTCGCTAG)	0.113
AAACTAGCTTGGGTTCTAACCTGTTGCGG (site AAACTAGCTCC)	2.27
AAACTAGCTTGGGTTCTAACCTGTTGCGG (site CGTGCGCCTAG)	0.288
AAACTCGCTTGGGTTCTAACCTGTTGCCT (site AAAATCTCTAG)	0.322
AAACTCGCTTGGGTTCTAACCTGTTGCCT (site AAACTCGCTAG)	1.8
AAATGGGCTTGGGTTCTAACCTGTTGCGG (site AAATGGGCTCC)	2.5
AAATGGGCTTGGGTTCTAACCTGTTGCGG (site AGATGAGCTCC)	0.166
AACAAGACTTGGGTTCTAACCTGTTGCCT (site AACAAGACTAG)	1.29
AACAAGACTTGGGTTCTAACCTGTTGCCT (site GTACGACCTGT)	0.274
AACAATACTTGGGTTCTAACCTGTTGCCT (site AACAATACTAG)	0.438
AACAATACTTGGGTTCTAACCTGTTGCCT (site CTGTGAGCTCT)	0.0738
AACACGACTTGGGTTCTAACCTGTTGCCT (site AACACGACTAG)	0.711
AACACGACTTGGGTTCTAACCTGTTGCCT (site GACAGGACTAG)	0.165
AACACTGCTTGGGTTCTAACCTGTTGCCT (site AACAATGCTAG)	0.0705
AACACTGCTTGGGTTCTAACCTGTTGCCT (site AACACTGCTAG)	1.09
AACACTGCTTGGGTTCTAACCTGTTGCCT (site AACAGTGCTAG)	0
AACACTGCTTGGGTTCTAACCTGTTGCCT (site AACATTGCTAG)	0.0625

Sequence	recombinant barcode read abundance (log10)
AACAGTACTTGGGTTCTAACCTGTTGCCT (site AACAGTACTAG)	0.845
AACAGTACTTGGGTTCTAACCTGTTGCCT (site CACAGTACTAG)	0.406
AACAGTACTTGGGTTCTAACCTGTTGCCT (site GACAGTACTAG)	0.129
AACAGTACTTGGGTTCTAACCTGTTGCCT (site TACAGTACTAG)	0.17
AACATAACTTGGGTTCTAACCTGTTGCGT (site AACATAACTAC)	1.34
AACATAACTTGGGTTCTAACCTGTTGCGT (site TGTTGTCCTCA)	0.0331
AACCCTACTTGGGTTCTAACCTGTTGCCT (site AACCCTACTAG)	0.929
AACCCTACTTGGGTTCTAACCTGTTGCCT (site CACCCTACTAG)	0.328
AACCCTACTTGGGTTCTAACCTGTTGCCT (site GACCCTACTAG)	0.0455
AACCCTACTTGGGTTCTAACCTGTTGCCT (site TACCCTACTAG)	0.193
AACCGCCCTTGGGTTCTAACCTGTTGCCT (site AACCGCCCTAC)	0.899
AACCGCCCTTGGGTTCTAACCTGTTGCCT (site AACCGCCCTAG)	0.478
AACGACGCTTGGGTTCTAACCTGTTGCCT (site AACGACGCTAG)	1.02
AACGACGCTTGGGTTCTAACCTGTTGCCT (site ACCGAGGCTAG)	0.0126
AACGCCTCTTGGGTTCTAACCTGTTGCCT (site AACGCCTCTAG)	0.389
AACGCCTCTTGGGTTCTAACCTGTTGCCT (site CACGCCTCTAG)	0.125
AACGCCTCTTGGGTTCTAACCTGTTGCCT (site GACGCCTCTAG)	0.178
AACGCCTCTTGGGTTCTAACCTGTTGCCT (site TACGCCTCTAG)	0.274
AACGTGTCTTGGGTTCTAACCTGTTGCCT (site AAAGTGTCTAG)	0.375
AACGTGTCTTGGGTTCTAACCTGTTGCCT (site AACGTGTCTAG)	2.57
AACGTGTCTTGGGTTCTAACCTGTTGCCT (site AAGGTGTCTAG)	0.103
AACGTGTCTTGGGTTCTAACCTGTTGCCT (site AATGTGTCTAG)	0.543

Assay: recombinant UMI read abundance after kanamycin selection (control-corrected) (log10(CPM+1)); higher = more efficient recombination; extreme values may be limits of the assay; sequences stand for … in AGTGCAGAGAAAATCGGCCAGTTTTCTCTGCCTGCAGTCCGCATGCCGTGGGACCCCTTGGGTTCTAACCTGTTGCCTAGATTTATGCAGCGGACTGCCTTTCTCCCAAAGTGATAAACCGG…AGGTTGGTTTCACT; site = the 11-nt donor
Method in brief: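 Under IPTG (0.07 mM) plus kanamycin, or without selection, Escherichia coli carrying a UMI-tagged donor and donor-binding-loop pair library and a target plasmid for the IS621 bridge recombinase were plated in two replicates. Recombinant UMIs were PCR-amplified across the donor–target junction and sequenced. Counts were converted to CPM, averaged over replicates, scaled by control-derived factors and reported as log10(CPM+1).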

Sequence	recombinant UMI read abundance (log10)
TTTGCGGCATGGACCGGTTTTCCCGGTAATCCGTATTTGCA (site TTTGCGGCTCG)	0
TTTGCGGCATGGACCGGTTTTCCCGGTAATCCGTATTTGCA (site TTTGCGGCTGG)	0
TTTGCGGCATGGACCGGTTTTCCCGGTAATCCGTATTTGCA (site TTTGCGGCTTG)	0.222
TTTGCGTCATGGACCGGTTTTCCCGGTAATCCGTATTTGCT (site TTTGCGACTAG)	0
TTTGCGTCATGGACCGGTTTTCCCGGTAATCCGTATTTGCT (site TTTGCGCCTAG)	0.0115
TTTGCGTCATGGACCGGTTTTCCCGGTAATCCGTATTTGCT (site TTTGCGGCTAG)	0.018
TTTGCGTCATGGACCGGTTTTCCCGGTAATCCGTATTTGCT (site TTTGCGTCTAG)	0.251
TTTGCTGCATGGACCGGTTTTCCCGGTAATCCGTATTTGTG (site TTAGCTGCTCA)	0.0128
TTTGCTGCATGGACCGGTTTTCCCGGTAATCCGTATTTGTG (site TTCGCTGCTCA)	0.00352
TTTGCTGCATGGACCGGTTTTCCCGGTAATCCGTATTTGTG (site TTGGCTGCTCA)	0.0177
TTTGCTGCATGGACCGGTTTTCCCGGTAATCCGTATTTGTG (site TTTGCTGCTCA)	0.0238
TTTGGCCCATGGACCGGTTTTCCCGGTAATCCGTATTTGCC (site TTTGGCCCTGG)	0
TTTGTGACATGGACCGGTTTTCCCGGTAATCCGTATTTGAG (site TTTGTGACTCT)	0.0187
TTTGTGGCATGGACCGGTTTTCCCGGTAATCCGTATTTGCT (site TTTGAGGCTAG)	0
TTTGTGGCATGGACCGGTTTTCCCGGTAATCCGTATTTGCT (site TTTGCGGCTAG)	0.00488
TTTGTGGCATGGACCGGTTTTCCCGGTAATCCGTATTTGCT (site TTTGGGGCTAG)	0.022
TTTGTGGCATGGACCGGTTTTCCCGGTAATCCGTATTTGCT (site TTTGTGGCTAG)	0.113
TTTGTTCCATGGACCGGTTTTCCCGGTAATCCGTATTTGGT (site ATTGTTCCTAC)	0.0334
TTTGTTCCATGGACCGGTTTTCCCGGTAATCCGTATTTGGT (site CTTGTTCCTAC)	0.00622
TTTGTTCCATGGACCGGTTTTCCCGGTAATCCGTATTTGGT (site GTTGTTCCTAC)	0.0225
TTTGTTCCATGGACCGGTTTTCCCGGTAATCCGTATTTGGT (site TTTGTTCCTAC)	0.0215
